According to ChEMBL document CHEMBL4425105, “Discovery of (S)-1-(1-(4-Chloro-3-fluorophenyl)-2-hydroxyethyl)-4-(2-((1-methyl-1H-pyrazol-5-yl)amino)pyrimidin-4-yl)pyridin-2(1H)-one (GDC-0994), an Extracellular Signal-Regulated Kinase 1/2 (ERK1/2) Inhibitor in Early Clinical Development” (J Med Chem, 2016):

Key:
[1] = molecular target: Mitogen-activated protein kinase 1 (Homo sapiens, UniProt P28482)
Description: Inhibition of ERK2 (unknown origin)

[2] = molecular target: Mitogen-activated protein kinase 3 (Homo sapiens, UniProt P27361)
Description: Inhibition of ERK1 (unknown origin)

Cytochrome P450 3A4 = Cytochrome P450 3A4 (Homo sapiens, UniProt P08684)
Description: Inhibition of CYP3A4 (unknown origin)

Cytochrome P450 = test: Inhibition of CYP450 (unknown origin); type: ADME, protein assay; details: human
in vivo = details: CD-1, mouse, po
Description: Oral bioavailability in CD-1 mouse

Mus musculus [3] = organism: Mus musculus
Description: In vivo inhibition of p90RSK phosphorylation in mouse xenografted with human HTC116 cells assessed as total plasma concentration required for efficacy

Mus musculus [4] = test: T>IC50 for inhibition of p90RSK phosphorylation in CD-1 mouse at 10 mg/kg, po
[5] = Fraction unbound in mouse plasma; type: ADME, cell-free
[6] = Drug metabolism in dog hepatocytes assessed as formation of 3-(4-(1-((S)-1-(4-chloro-3-fluorophenyl)-2-hydroxyethyl)-2-oxo-1,2-dihydropyridin-4-yl)pyrimidin-2-ylamino)-5-hydroxypentanoic acid measured after 3 hrs by LC-MS/MS analysis; type: ADME, cell-based, Canis lupus familiaris, Hepatocyte
[7] = Drug metabolism in rat hepatocytes assessed as formation of 3-(4-(1-((S)-1-(4-chloro-3-fluorophenyl)-2-hydroxyethyl)-2-oxo-1,2-dihydropyridin-4-yl)pyrimidin-2-ylamino)-5-hydroxypentanoic acid measured after 3 hrs by LC-MS/MS analysis; type: ADME, cell-based, Hepatocyte
[8] = Drug metabolism in mouse hepatocytes assessed as formation of 3-(4-(1-((S)-1-(4-chloro-3-fluorophenyl)-2-hydroxyethyl)-2-oxo-1,2-dihydropyridin-4-yl)pyrimidin-2-ylamino)-5-hydroxypentanoic acid measured after 3 hrs by LC-MS/MS analysis; type: ADME, cell-based, Hepatocyte
[9] = Drug metabolism in human hepatocytes assessed as formation of 3-(4-(1-((S)-1-(4-chloro-3-fluorophenyl)-2-hydroxyethyl)-2-oxo-1,2-dihydropyridin-4-yl)pyrimidin-2-ylamino)-5-hydroxypentanoic acid measured after 3 hrs by LC-MS/MS analysis; type: ADME, cell-based, Hepatocyte
[10] = Drug metabolism in cynomolgus monkey hepatocytes assessed as formation of 3-(4-(1-((S)-1-(4-chloro-3-fluorophenyl)-2-hydroxyethyl)-2-oxo-1,2-dihydropyridin-4-yl)pyrimidin-2-ylamino)-5-hydroxypentanoic acid measured after 3 hrs by LC/MS analysis; type: ADME, cell-based, Macaca fascicularis, Hepatocyte
[11] = Permeability from apical to basolateral side of MDCK cells; type: ADME, cell-based, Canis lupus familiaris; details: dog, read-out: permeability
HCT-116 = test: Antitumor activity against human HCT116 cells xenografted in mouse assessed as tumor growth inhibition at 7.5 mg/kg, po qd measured after 21 days relative to vehicle-control; type: functional; details: HCT-116, po, 504 h
[12] = Drug level in dog hepatocytes treated with (S)-1-(1-(4-chloro-3-fluorophenyl)-2-hydroxyethyl)-4-(2-(tetrahydro-2H-pyran-4-ylamino)pyrimidin-4-yl)pyridin-2(1H)-one measured after 3 hrs by LC/MS analysis; type: ADME, cell-based, Canis lupus familiaris, Hepatocyte
[13] = Drug level in rat hepatocytes treated with (S)-1-(1-(4-chloro-3-fluorophenyl)-2-hydroxyethyl)-4-(2-(tetrahydro-2H-pyran-4-ylamino)pyrimidin-4-yl)pyridin-2(1H)-one measured after 3 hrs by LC/MS analysis; type: ADME, cell-based, Hepatocyte
[14] = Drug level in human hepatocytes treated with (S)-1-(1-(4-chloro-3-fluorophenyl)-2-hydroxyethyl)-4-(2-(tetrahydro-2H-pyran-4-ylamino)pyrimidin-4-yl)pyridin-2(1H)-one measured after 3 hrs by LC/MS analysis; type: ADME, cell-based, Hepatocyte
[15] = Drug level in cynomolgus monkey hepatocytes treated with (S)-1-(1-(4-chloro-3-fluorophenyl)-2-hydroxyethyl)-4-(2-(tetrahydro-2H-pyran-4-ylamino)pyrimidin-4-yl)pyridin-2(1H)-one measured after 3 hrs by LC/MS analysis; type: ADME, cell-based, Macaca fascicularis, Hepatocyte
[16] = Drug level in mouse hepatocytes treated with (S)-1-(1-(4-chloro-3-fluorophenyl)-2-hydroxyethyl)-4-(2-(tetrahydro-2H-pyran-4-ylamino)pyrimidin-4-yl)pyridin-2(1H)-one measured after 3 hrs by LC/MS analysis; type: ADME, cell-based, Hepatocyte

Chain of Mitogen-activated protein kinase 3 (P27361 whole entry): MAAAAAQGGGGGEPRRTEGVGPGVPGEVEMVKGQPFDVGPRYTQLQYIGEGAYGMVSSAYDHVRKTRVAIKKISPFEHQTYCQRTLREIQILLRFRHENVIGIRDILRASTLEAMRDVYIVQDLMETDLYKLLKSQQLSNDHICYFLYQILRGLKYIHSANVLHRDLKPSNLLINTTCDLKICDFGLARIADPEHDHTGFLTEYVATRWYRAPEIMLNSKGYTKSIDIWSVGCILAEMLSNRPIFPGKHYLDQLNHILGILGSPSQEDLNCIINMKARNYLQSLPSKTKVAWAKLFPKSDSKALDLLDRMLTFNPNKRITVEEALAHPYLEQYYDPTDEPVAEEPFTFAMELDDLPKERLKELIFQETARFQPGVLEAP
Chain of Mitogen-activated protein kinase 1 (P28482 whole entry): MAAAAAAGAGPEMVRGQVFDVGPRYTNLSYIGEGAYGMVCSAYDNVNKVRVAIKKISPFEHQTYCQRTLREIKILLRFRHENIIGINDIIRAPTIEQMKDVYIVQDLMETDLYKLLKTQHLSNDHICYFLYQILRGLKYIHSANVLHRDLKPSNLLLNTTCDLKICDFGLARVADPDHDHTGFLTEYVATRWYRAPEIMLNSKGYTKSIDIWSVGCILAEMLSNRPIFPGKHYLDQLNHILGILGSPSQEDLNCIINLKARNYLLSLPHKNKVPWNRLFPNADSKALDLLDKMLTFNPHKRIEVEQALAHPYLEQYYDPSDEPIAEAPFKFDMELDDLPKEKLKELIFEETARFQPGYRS
Chain of Cytochrome P450 3A4 (P08684 whole entry): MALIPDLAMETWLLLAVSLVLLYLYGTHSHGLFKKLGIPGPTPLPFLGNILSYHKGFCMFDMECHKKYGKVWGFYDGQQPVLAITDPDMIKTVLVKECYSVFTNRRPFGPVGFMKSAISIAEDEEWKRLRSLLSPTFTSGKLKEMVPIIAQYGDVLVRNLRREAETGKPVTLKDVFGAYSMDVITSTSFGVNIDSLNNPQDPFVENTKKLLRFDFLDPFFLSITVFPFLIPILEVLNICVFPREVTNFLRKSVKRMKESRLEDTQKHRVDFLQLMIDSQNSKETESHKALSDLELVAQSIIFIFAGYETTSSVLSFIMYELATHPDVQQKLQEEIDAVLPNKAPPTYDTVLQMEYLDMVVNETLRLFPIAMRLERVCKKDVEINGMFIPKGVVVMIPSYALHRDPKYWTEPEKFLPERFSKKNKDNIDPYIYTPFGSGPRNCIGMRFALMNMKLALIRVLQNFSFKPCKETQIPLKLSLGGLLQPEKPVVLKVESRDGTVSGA

IC50 [1] [nM]	IC50 [2] [nM]	inhibition (INH) (Cytochrome P450)	Structure (SMILES)	further results
0.94	3.9	–	Cc1cc(Nc2nccc(-c3ccn([C@H](CO)c4ccc(Cl)c(F)c4)c(=O)c3)n2)ccn1	IC50 (Cytochrome P450 3A4): 340 nM
17	27	–	CCc1cc(Nc2nccc(-c3ccn([C@H](CO)c4ccc(Cl)c(F)c4)c(=O)c3)n2)n(C)n1	–
29	62	Not Active	Cc1c(Nc2nccc(-c3ccn([C@H](CO)c4ccc(Cl)c(F)c4)c(=O)c3)n2)cnn1C	–
–	13	Not Active	Cc1nn(C)cc1Nc1nccc(-c2ccn([C@H](CO)c3ccc(Cl)c(F)c3)c(=O)c2)n1	bioavailability (in vivo): 95%
–	–	–	O=c1cc(-c2ccnc(NC3CCOCC3)n2)ccn1[C@H](CO)c1ccc(Cl)c(F)c1	Cp (Mus musculus [3]): 200 nM; Time (Mus musculus [4]): 8 h; fraction unbound [5]: 0.058; Drug metabolism [6]: Metabolite_Detected; Drug metabolism [7]: Metabolite_Detected; Drug metabolism [8]: Metabolite_Detected; Drug metabolism [9]: Metabolite_Detected; Drug metabolism [10]: Metabolite_Detected; Papp A→B [11]: 3.9 ×10⁻⁶ cm/s
16	26	–	CCn1nccc1Nc1nccc(-c2ccn([C@H](CO)c3ccc(Cl)c(F)c3)c(=O)c2)n1	–
–	–	–	O=C(c1ccc(F)c(F)c1Nc1ccc(I)cc1F)N1CC(O)([C@@H]2CCCCN2)C1 [COBIMETINIB]	inhibition in vivo at 7.5 mg/kg (HCT-116): 58%
37	85	–	Cn1ccc(Nc2nccc(-c3ccn([C@H](CO)c4ccc(Cl)c(F)c4)c(=O)c3)n2)n1	–
1.8	5	Not Active	CCn1cc(Nc2nccc(-c3ccn([C@H](CO)c4ccc(Cl)c(F)c4)c(=O)c3)n2)cn1	–
89	150	–	CCn1nc(C)cc1Nc1nccc(-c2ccn([C@H](CO)c3ccc(Cl)c(F)c3)c(=O)c2)n1	–
240	510	Not Active	Cc1n[nH]c(C)c1Nc1nccc(-c2ccn([C@H](CO)c3ccc(Cl)c(F)c3)c(=O)c2)n1	–
4.1	7.9	Not Active	Cn1cc(Nc2nccc(-c3ccn([C@H](CO)c4ccc(Cl)c(F)c4)c(=O)c3)n2)cn1	–
5650	9610	–	O=c1cc(-c2ccnc(Nc3cc[nH]n3)n2)ccn1[C@H](CO)c1ccc(Cl)c(F)c1	–
23	43	Not Active	CCc1nn(C)cc1Nc1nccc(-c2ccn([C@H](CO)c3ccc(Cl)c(F)c3)c(=O)c2)n1	–
–	–	–	O=C(O)CC(CCO)Nc1nccc(-c2ccn([C@H](CO)c3ccc(Cl)c(F)c3)c(=O)c2)n1 (some centres not stated)	Drug metabolism [12]: Metabolite_Detected; Drug metabolism [13]: Metabolite_Detected; Drug metabolism [14]: Metabolite_Detected; Drug metabolism [15]: Metabolite_Detected; Drug metabolism [16]: Metabolite_Detected
10	19	Not Active	CC(C)n1cc(Nc2nccc(-c3ccn([C@H](CO)c4ccc(Cl)c(F)c4)c(=O)c3)n2)cn1	–
0.9	3.8	Not Active	Cc1n[nH]cc1Nc1nccc(-c2ccn([C@H](CO)c3ccc(Cl)c(F)c3)c(=O)c2)n1	–
–	18	Not Active	CCn1cc(Nc2nccc(-c3ccn([C@H](CO)c4ccc(Cl)c(F)c4)c(=O)c3)n2)c(C)n1	–
290	550	Not Active	Cn1cc(Nc2nccc(-c3ccn([C@H](CO)c4ccc(Cl)c(F)c4)c(=O)c3)n2)c(C(F)(F)F)n1	–
490	1070	–	Cc1cnn(C)c1Nc1nccc(-c2ccn([C@H](CO)c3ccc(Cl)c(F)c3)c(=O)c2)n1	–
–	20	–	Cc1cc(Nc2nccc(-c3ccn([C@H](CO)c4ccc(Cl)c(F)c4)c(=O)c3)n2)n(C)n1	–
52	74	–	Cn1nc(C(F)(F)F)cc1Nc1nccc(-c2ccn([C@H](CO)c3ccc(Cl)c(F)c3)c(=O)c2)n1	–
